In series [1] the test system is 3D7 strain of Plasmodium falciparum. The series can be described thus: In vitro anti-plasmodial pLDH assay. The series is classed as cell-based.
For series [2], the system named is M. tuberculosis H37Rv strain. Kind of series: microbe, parasite or virus in culture. It counts as cell-based. Particulars: Mycobacterium tuberculosis, concentration inhibiting 90% of bacterial population; for MIC: read-out: MIC90 H37Rv.
[3] abbreviates: Plasmodium falciparum, chloroquine sensitive strain 3D7 of P. falciparum, 48 h, na = not active, read-out: IC50 Pf 3D7.
[4] abbreviates: Plasmodium falciparum, 3D7, 48 h, read-out: IC50 Pf 3D7, chloroquine sensitive strain 3D7 of P. falciparum, na = not active.

≈ marks a conversion by molar mass, not a printed value. Like-named read-outs stand apart in the source and are kept apart here. Bounds are passed on as bounds.

For `CCN(CC)CCCC(C)Nc1ccnc2cc(Cl)ccc12` (stereo not drawn) [CQ, Chloroquine, reference compound], the concentration for half-maximal inhibition (IC50) in series [1] (setting [3]) came to 0.012 µM.

Take `CCOC(=O)c1c[nH]c2ccc(C(C)=O)cc2c1=O` [Compound 8]: the 50% inhibitory concentration (IC50) in series [1] (setting [3]) was 4 µM.

As to `CCn1cc(C(=O)NCCCn2ccnc2)c(=O)c2cc(/C(C)=N/NC(N)=S)ccc21` [Compound 11, (E)-N-(3-(1H-imidazol-1-yl)propyl)-6-(1-(2-carbamothioylhydrazono)ethyl)-1-ethyl-4-oxo-1,4-dihydroquinolone-3-carboxamide], the melting point is 187 to 189 °C. Further, in series [2], the MIC90 is more than 125 µM and the MIC is more than 125 µM. Also, the 50% inhibitory concentration (IC50) in series [1] (setting [3]) was found to be 3.7 µM.

Consider `CCn1cc(C(=O)NCCNCCO)c(=O)c2cc(/C(C)=N/NC(N)=S)ccc21` [Compound 12, (E)-6-(1-(2-carbamothioylhydrazono)ethyl)-1-ethyl-N-(2-((2-hydroxyethyl)amino)ethyl)-4-oxo-1,4-dihydroquinolone-3-carboxamide], for which the melting point is 183 to 185 °C. Besides, in series [2], the MIC90 is 73.4 µM (≈ 30.7 µg/mL) and the MIC was determined as 73.4 µM (≈ 30.7 µg/mL). In series [1] (chloroquine sensitive strain 3D7 of P. falciparum, 48 h, na = not active), the “IC50 Pf 3D7” value was “not active”.

Compound `C/C(=N\NC(N)=S)c1ccc2c(c1)c(=O)c(C(=O)NCCNCCO)cn2Cc1ccccc1` [Compound 13, (E)-1-benzyl-6-(1-(2-carbamothioylhydrazono)ethyl)-N-(2-((2-hydroxyethyl)amino)ethyl)-4-oxo-1,4-dihydroquinolone-3-carboxamide] returned a melting point of 197 to 199 °C. In addition, in series [2], the MIC90 is 2.7 µM (≈ 1.3 µg/mL) and the MIC amounted to 2.7 µM (≈ 1.3 µg/mL). The half-inhibitory concentration (IC50) in series [1] (setting [4]) came out at 4.1 µM.

With `C/C(=N\NC(N)=S)c1ccc2c(c1)c(=O)c(C(=O)NCCNCCO)cn2Cc1ccc(Br)cc1` [Compound 14, (E)-1-(4-bromobenzyl)-6-(1-(2-carbamothioylhydrazono)ethyl)-N-(2-((2-hydroxyethyl)amino)ethyl)-4-oxo-1,4-dihydroquinolone-3-carboxamide], the melting point was 200 to 202 °C. In series [2], the MIC90 is 10.3 µM (≈ 5.76 µg/mL) and the MIC stood at 10.3 µM (≈ 5.76 µg/mL). For the same compound, in series [1] (setting [4]), the IC50 was found to be 4 µM. In addition, the concentration for half-maximal inhibition (IC50) in series [1] (read-out: IC50 Pf 3D7, chloroquine sensitive strain 3D7 of P. falciparum, 48 h, na = not active) came out at 4.7 µM.

Compound `C/C(=N\NC(N)=S)c1ccc2c(c1)c(=O)c(C(=O)NCCNCCO)cn2Cc1ccc(C(F)(F)F)cc1` [Compound 15, (E)-6-(1-(2-carbamothioylhydrazono)ethyl)-N-(2-((2-hydroxyethyl)amino)ethyl)-4-oxo-1-(4-(trifluoromethyl)benzyl)-1,4-dihydroquinolone-3-carboxamide] came in with a melting point of 199 to 201 °C. In series [2], this compound had an MIC90 of 2 µM (≈ 1.1 µg/mL). In addition, the IC50 in series [1] (setting [4]) was 1.2 µM.

For the compound `C/C(=N\NC(N)=S)c1ccc2c(c1)c(=O)c(C(=O)NCCNCCO)cn2Cc1ccc(Cl)cc1Cl` [Compound 16, (E)-6-(1-(2-carbamothioylhydrazono)ethyl)-1-(2,4-dichlorobenzyl)-N-(2-((2-hydroxyethyl)amino)ethyl)-4-oxo-1,4-dihydroquinolone-3-carboxamide], the melting point lay in the range of 205 to 207 °C. Also, in series [2], the MIC90 came to 4.8 µM (≈ 2.64 µg/mL) and the MIC turned out to be 4.8 µM (≈ 2.64 µg/mL). For the same compound, the half-maximal inhibitory concentration (IC50) in series [1] (setting [4]) was 3.1 µM.

Take `COCCNC(=O)c1cn(Cc2ccccc2)c2ccc(/C(C)=N/NC(N)=S)cc2c1=O` [Compound 17, (E)-1-benzyl-6-(1-(2-carbamothioylhydrazono)ethyl)-N-(2-methoxyethyl)-4-oxo-1,4-dihydroquinolone-3-carboxamide]: the melting point was in the range of 199 to 200 °C. In addition, in series [2], the MIC90 was 44.2 µM (≈ 20 µg/mL) and the MIC turned out to be 44.2 µM (≈ 20 µg/mL). Besides, in series [1] (setting [4]), the half-maximal inhibitory concentration (IC50) was 24.6 µM.

`COCCNC(=O)c1cn(Cc2ccc(Br)cc2)c2ccc(/C(C)=N/NC(N)=S)cc2c1=O` [Compound 18, (E)-1-(4-bromobenzyl)-6-(1-(2-carbamothioylhydrazono)ethyl)-N-(2-methoxyethyl)-4-oxo-1,4-dihydroquinolone-3-carboxamide]: the melting point lay within 204 to 206 °C. This compound came in with an MIC90 in series [2] of 15 µM (≈ 7.96 µg/mL). Besides, in series [1] (setting [4]), the half-inhibitory concentration (IC50) came out at 9.9 µM.

`COCCNC(=O)c1cn(Cc2ccc(Cl)cc2Cl)c2ccc(/C(C)=N/NC(N)=S)cc2c1=O` [Compound 19, (E)-6-(1-(2-carbamothioylhydrazono)ethyl)-1-(2,4-dichlorobenzyl)-N-(2-methoxyethyl)-4-oxo-1,4-dihydroquinolone-3-carboxamide] came in with a melting point of 209 to 211 °C. This compound yielded an MIC90 in series [2] of 10.2 µM (≈ 5.31 µg/mL).

In turn, `CCOC(=O)c1cn(Cc2ccc(Cl)cc2Cl)c2ccc(/C(C)=N/NC(N)=S)cc2c1=O` [Compound 21, Ethyl-(E)-6-(1-(2-carbamothioylhydrazono)ethyl)-1-(2,4-dichlorobenzyl)-4-oxo-1,4-dihydroquinolone-3-carboxylate] came in with a melting point of 211 to 213 °C. Besides, in series [2], the MIC90 worked out at 31.6 µM (≈ 15.5 µg/mL) and the MIC came out at 31.6 µM (≈ 15.5 µg/mL).

Take `CO[C@H]1/C=C/O[C@@]2(C)Oc3c(C)c(O)c4c(O)c(c(/C=N/N5CCN(C)CC5)c(O)c4c3C2=O)NC(=O)/C(C)=C\C=C\[C@H](C)[C@H](O)[C@@H](C)[C@@H](O)[C@@H](C)[C@H](OC(C)=O)[C@@H]1C` [RF, Rifampicin, reference compound]: the MIC90 in series [2] turned out to be 0.062 µM (≈ 0.051 µg/mL).

What is called IC50 is the concentration that gives 50% inhibition. By melting point is commonly meant the temperature, or range, at which the solid turns liquid.
